Measurements: PubChem BioAssay AID272 (DTP/NCI, 2004)
Values joined by “and” are separate entries in the source; they are usually repeats but may differ in a detail not shown here. Identical values can stand only once. Records with an inconclusive call do not appear.

Test system: Lewis lung carcinoma i.m., BDF1 mice, T/C %
Experiment: NCI In Vivo Anticancer Drug Screen. Data for tumor model Lewis Lung Carcinoma (intramuscular) in B6D2F1 (BDF1) mice
Conditions: endpoint: mean tumor weight, higher = larger tumour
Procedure, shortened: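 Mice carrying transplantable tumours received test compound. Survival or tumour size was recorded and expressed as the treated-group value (T) divided by the vehicle-treated control-group value (C).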

SMILES: CCc1nc(N)nc(N)c1-c1ccc(Cl)cc1
- T/C (dose: 2.0 mg/kg/injection, schedule: Q06HX008 (ip), vehicle: Klucel (hydroxypropylcellulose) (HPC)): 104 % of control
- T/C (dose: 4.0 mg/kg/injection, schedule: Q01DX009 (ip), vehicle: Klucel (hydroxypropylcellulose) (HPC)): 87 % of control
- T/C (dose: 4.0 mg/kg/injection, schedule: Q01DX009 (oral), vehicle: Klucel (hydroxypropylcellulose) (HPC)): 37 % of control
- T/C (dose: 4.0 mg/kg/injection, schedule: Q01DX009 (sc), vehicle: Klucel (hydroxypropylcellulose) (HPC)): 95 % of control
- T/C (dose: 4.0 mg/kg/injection, schedule: Q06HX004 (ip), vehicle: Klucel (hydroxypropylcellulose) (HPC)): 82 % of control
- T/C (dose: 4.0 mg/kg/injection, schedule: Q06HX012 (ip), vehicle: Klucel (hydroxypropylcellulose) (HPC)): 71 % of control
- T/C (dose: 8.0 mg/kg/injection, schedule: Q01DX001 (sc), vehicle: Klucel (hydroxypropylcellulose) (HPC)): 66 % of control
- T/C (dose: 8.0 mg/kg/injection, schedule: Q01DX009 (ip), vehicle: Klucel (hydroxypropylcellulose) (HPC)): 67 % of control
- T/C (dose: 8.0 mg/kg/injection, schedule: Q01DX009 (oral), vehicle: Klucel (hydroxypropylcellulose) (HPC)): 31 % of control
- T/C (dose: 8.0 mg/kg/injection, schedule: Q01DX009 (sc), vehicle: Klucel (hydroxypropylcellulose) (HPC)): 76 % of control
- T/C (dose: 8.0 mg/kg/injection, schedule: Q04DX003 (ip), vehicle: Klucel (hydroxypropylcellulose) (HPC)): 92 % of control
- T/C (dose: 8.0 mg/kg/injection, schedule: Q06HX004 (ip), vehicle: Klucel (hydroxypropylcellulose) (HPC)): 75 % of control
- T/C (dose: 8.0 mg/kg/injection, schedule: Q06HX008 (ip), vehicle: Klucel (hydroxypropylcellulose) (HPC)): 65 % of control and 68 % of control
- T/C (dose: 8.0 mg/kg/injection, schedule: Q06HX012 (ip), vehicle: Klucel (hydroxypropylcellulose) (HPC)): 57 % of control
- T/C (dose: 8.0 mg/kg/injection, schedule: Q08DX002 (ip), vehicle: Klucel (hydroxypropylcellulose) (HPC)): 85 % of control
- T/C (dose: 12.5 mg/kg/injection, schedule: Q01DX011 (ip), vehicle: steriod suspending solution): 65 % of control
- T/C (dose: 16.0 mg/kg/injection, schedule: Q01DX001 (ip), vehicle: Klucel (hydroxypropylcellulose) (HPC)): 71 % of control
- T/C (dose: 16.0 mg/kg/injection, schedule: Q01DX001 (oral), vehicle: Klucel (hydroxypropylcellulose) (HPC)): 84 % of control
- T/C (dose: 16.0 mg/kg/injection, schedule: Q01DX001 (sc), vehicle: Klucel (hydroxypropylcellulose) (HPC)): 75 % of control and 80 % of control
- T/C (dose: 16.0 mg/kg/injection, schedule: Q01DX009 (ip), vehicle: Klucel (hydroxypropylcellulose) (HPC)): 83 % of control and 98 % of control
- T/C (dose: 16.0 mg/kg/injection, schedule: Q01DX009 (oral), vehicle: Klucel (hydroxypropylcellulose) (HPC)): 38 % of control
- T/C (dose: 16.0 mg/kg/injection, schedule: Q01DX009 (sc), vehicle: Klucel (hydroxypropylcellulose) (HPC)): 80 % of control
- T/C (dose: 16.0 mg/kg/injection, schedule: Q04DX003 (ip), vehicle: Klucel (hydroxypropylcellulose) (HPC)): 73 % of control and 78 % of control
- T/C (dose: 16.0 mg/kg/injection, schedule: Q06HX004 (ip), vehicle: Klucel (hydroxypropylcellulose) (HPC)): 84 % of control
- T/C (dose: 16.0 mg/kg/injection, schedule: Q06HX008 (ip), vehicle: Klucel (hydroxypropylcellulose) (HPC)): 58 % of control and 73 % of control
- T/C (dose: 16.0 mg/kg/injection, schedule: Q06HX012 (ip), vehicle: Klucel (hydroxypropylcellulose) (HPC)): 56 % of control
- T/C (dose: 25.0 mg/kg/injection, schedule: Q01DX011 (ip), vehicle: steriod suspending solution): 57 % of control
- T/C (dose: 32.0 mg/kg/injection, schedule: Q01DX001 (ip), vehicle: Klucel (hydroxypropylcellulose) (HPC)): 75 % of control
- T/C (dose: 32.0 mg/kg/injection, schedule: Q01DX001 (oral), vehicle: Klucel (hydroxypropylcellulose) (HPC)): 95 % of control
- T/C (dose: 32.0 mg/kg/injection, schedule: Q01DX001 (sc), vehicle: Klucel (hydroxypropylcellulose) (HPC)): 85 % of control and 94 % of control
- T/C (dose: 32.0 mg/kg/injection, schedule: Q01DX009 (oral), vehicle: Klucel (hydroxypropylcellulose) (HPC)): 32 % of control
- T/C (dose: 32.0 mg/kg/injection, schedule: Q01DX009 (sc), vehicle: Klucel (hydroxypropylcellulose) (HPC)): 71 % of control
- T/C (dose: 32.0 mg/kg/injection, schedule: Q04DX003 (ip), vehicle: Klucel (hydroxypropylcellulose) (HPC)): 76 % of control and 94 % of control
- T/C (dose: 32.0 mg/kg/injection, schedule: Q06HX008 (ip), vehicle: Klucel (hydroxypropylcellulose) (HPC)): 62 % of control
- T/C (dose: 32.0 mg/kg/injection, schedule: Q08DX002 (ip), vehicle: Klucel (hydroxypropylcellulose) (HPC)): 74 % of control
- T/C (dose: 50.0 mg/kg/injection, schedule: Q01DX011 (ip), vehicle: steriod suspending solution): 50 % of control
- T/C (dose: 64.0 mg/kg/injection, schedule: Q01DX001 (ip), vehicle: Klucel (hydroxypropylcellulose) (HPC)): 78 % of control
- T/C (dose: 64.0 mg/kg/injection, schedule: Q01DX001 (oral), vehicle: Klucel (hydroxypropylcellulose) (HPC)): 85 % of control
- T/C (dose: 64.0 mg/kg/injection, schedule: Q01DX001 (sc), vehicle: Klucel (hydroxypropylcellulose) (HPC)): 78 % of control and 81 % of control
